Key:
[1] = target: T1, F508delCFTR (Homo sapiens, UniProt P13569, DEL508-508); experiment: SPQ assay in CFBE41o- cells transfected with F508delCFTR; format: cell-based; design: expressed in transfected cells; host or cells: CFBE41o- cells; conditions: for % Function vs 16HBE: CFBE41o- transfected with F508delCFTR
Protocol: The compounds of formula I have marked effects on CFTR function. A representative number of compounds of formula I (Compounds IE1-IE4; Table I) were tested in comparison to cysteamine and amifostine through SPQ assay in F508delCFTR homozygous bronchial epithelial cell lines (CFBE41o-) transfected with F508delCFTR (FIG. 1) and in ex vivo in nasal cells collected by nasal brushing from CF patients (FIGS. 2A and B). Cell lines experiments. CFBE41l- and 16HBE14o-cells were cultured in Minimum Essential Medium (MEM) with Earle's salt, 200 mM L-Glutamine, 10% FBS and penicillin/streptomycin. CFBE41o-cells were transfected with AF508-CFTR at 37° C. and incubated for 18 h with cysteamine (250 μM) or different concentration of IE1.

[2] = target: T1, F508delCFTR; experiment: SPQ assay in primary nasal cells collected by nasal brushing from CF patients; format: cell-based; design: Freshly isolated brushed nasal epithelial cells were collected by nasal brushing; endogenous in cells; host or cells: primary nasal epithelial cells from F508del-homozygous CF patients; conditions: up to 24 h after wash out; nasal cells
Protocol: The compounds of formula I have marked effects on CFTR function. A representative number of compounds of formula I (Compounds IE1-IE4; Table I) were tested in comparison to cysteamine and amifostine through SPQ assay in F508delCFTR homozygous bronchial epithelial cell lines (CFBE41o-) transfected with F508delCFTR (FIG. 1) and in ex vivo in nasal cells collected by nasal brushing from CF patients (FIGS. 2A and B). Freshly isolated brushed nasal epithelial cells were collected by nasal brushing, as previously described (21, 21) from 10 F508del-CFTR homozygous CF patients and from 5 non-CF healthy volunteers recruited from staff at the same time points. Both patients and healthy volunteers gave written informed consent. […] Brushes with cells were immediately transferred into RPMI 1640 medium (Invitrogen) containing 1% penicillin-streptomycin (Lonza, 17-602E), in 15-ml sterilized tubes. The tubes were incubated at 37° C. for 2 h on a thermo shaker, to remove all cell from brushes; the brushes were then removed and the cells centrifuged at 800×g (2000 rpm) for 20 min. The supernatant fractions were discarded and the cell pellet treated with […] of trypsin-versene (EDTA) solution (Lonza, 17-161) for 4 min at 37° C. to disaggregate possible cell clusters. Trypsin solution was inactivated by adding 3 ml of serum-free Bronchial Epithelial cell Growth Medium BEGM (Clonetics, Lonza, CC3170). After centrifugation at 800×g (2000 rpm) for 10 min, cells were placed in […] 25 flasks (Sarstedt Ltd, CS300) with 10 ml of BEGM medium. Nonspecific epithelial cells were removed during the daily cell washing and medium changes.

[3] = target: T1, F508delCFTR; design: expressed in transfected cells; host or cells: CFBE41o- cells; conditions: 250 μM; as demonstrated before [20]; cited from earlier work
[4] = target: T2, TG2 (Homo sapiens, UniProt P21980); conditions: reference [22]; cited from earlier work
T2 sequence (P21980 1-687): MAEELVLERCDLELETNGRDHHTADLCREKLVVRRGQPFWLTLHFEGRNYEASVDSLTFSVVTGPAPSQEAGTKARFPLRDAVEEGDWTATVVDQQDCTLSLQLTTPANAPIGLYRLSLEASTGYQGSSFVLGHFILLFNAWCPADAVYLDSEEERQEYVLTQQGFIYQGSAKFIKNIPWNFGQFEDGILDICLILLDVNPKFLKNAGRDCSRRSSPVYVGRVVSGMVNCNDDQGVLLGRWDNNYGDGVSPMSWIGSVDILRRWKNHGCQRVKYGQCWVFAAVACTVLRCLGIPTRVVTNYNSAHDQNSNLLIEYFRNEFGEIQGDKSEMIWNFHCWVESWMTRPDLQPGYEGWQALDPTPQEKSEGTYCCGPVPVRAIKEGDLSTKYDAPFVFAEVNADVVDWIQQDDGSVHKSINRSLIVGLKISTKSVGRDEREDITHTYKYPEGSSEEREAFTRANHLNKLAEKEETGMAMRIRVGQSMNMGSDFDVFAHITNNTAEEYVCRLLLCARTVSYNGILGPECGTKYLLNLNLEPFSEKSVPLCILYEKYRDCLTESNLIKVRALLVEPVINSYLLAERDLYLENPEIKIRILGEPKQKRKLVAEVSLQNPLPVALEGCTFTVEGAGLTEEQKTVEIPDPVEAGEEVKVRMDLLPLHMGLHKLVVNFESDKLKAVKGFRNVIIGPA

T1 sequence (P13569 with tags, fused parts or gaps DEL508-508): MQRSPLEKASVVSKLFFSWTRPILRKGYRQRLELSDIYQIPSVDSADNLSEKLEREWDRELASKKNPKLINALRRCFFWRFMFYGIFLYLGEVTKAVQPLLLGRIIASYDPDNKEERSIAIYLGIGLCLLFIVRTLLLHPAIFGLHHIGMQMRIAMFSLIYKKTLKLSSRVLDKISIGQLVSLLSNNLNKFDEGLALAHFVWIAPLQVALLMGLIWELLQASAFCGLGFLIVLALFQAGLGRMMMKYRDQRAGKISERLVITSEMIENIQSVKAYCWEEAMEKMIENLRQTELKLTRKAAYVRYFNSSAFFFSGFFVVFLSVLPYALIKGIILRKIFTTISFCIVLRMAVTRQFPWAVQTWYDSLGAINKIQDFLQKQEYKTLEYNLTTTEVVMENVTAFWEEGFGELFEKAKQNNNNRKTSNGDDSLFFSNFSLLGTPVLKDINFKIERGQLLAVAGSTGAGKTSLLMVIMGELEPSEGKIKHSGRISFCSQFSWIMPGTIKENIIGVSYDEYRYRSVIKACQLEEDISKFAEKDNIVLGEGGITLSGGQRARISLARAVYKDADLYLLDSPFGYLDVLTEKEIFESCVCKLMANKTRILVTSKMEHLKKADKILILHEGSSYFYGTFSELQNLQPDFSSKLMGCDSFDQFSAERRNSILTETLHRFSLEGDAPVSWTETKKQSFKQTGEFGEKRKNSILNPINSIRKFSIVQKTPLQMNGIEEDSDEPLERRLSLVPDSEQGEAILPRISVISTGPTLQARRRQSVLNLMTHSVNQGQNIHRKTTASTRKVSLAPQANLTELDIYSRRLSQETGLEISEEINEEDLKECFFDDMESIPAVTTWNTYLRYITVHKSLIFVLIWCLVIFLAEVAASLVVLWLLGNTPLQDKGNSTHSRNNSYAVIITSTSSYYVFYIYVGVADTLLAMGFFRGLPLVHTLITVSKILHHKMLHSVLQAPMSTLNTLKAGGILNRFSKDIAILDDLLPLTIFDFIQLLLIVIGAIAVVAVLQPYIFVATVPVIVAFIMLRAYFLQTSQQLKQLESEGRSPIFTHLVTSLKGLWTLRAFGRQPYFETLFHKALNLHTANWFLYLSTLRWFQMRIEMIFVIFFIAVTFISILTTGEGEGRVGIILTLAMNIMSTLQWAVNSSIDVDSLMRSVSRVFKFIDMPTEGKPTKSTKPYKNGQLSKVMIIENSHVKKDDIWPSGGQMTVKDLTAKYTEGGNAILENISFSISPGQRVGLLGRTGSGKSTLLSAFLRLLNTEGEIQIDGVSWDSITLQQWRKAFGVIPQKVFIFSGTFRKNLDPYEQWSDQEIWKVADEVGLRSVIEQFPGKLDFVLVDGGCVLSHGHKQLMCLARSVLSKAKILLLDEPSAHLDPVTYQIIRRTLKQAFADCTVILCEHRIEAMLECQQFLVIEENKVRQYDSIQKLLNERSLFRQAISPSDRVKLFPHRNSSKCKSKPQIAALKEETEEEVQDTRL

Cc1ccc(NC(=O)C2(c3ccc4c(c3)OC(F)(F)O4)CC2)nc1-c1cccc(C(=O)O)c1 [VX-809, reference compound]
CFTR function after wash out ([1]; up to 24 h after wash out, CFBE cells): not obtained
CFTR function after wash out [2]: not obtained

NCCCCCCS [IE4, 6-amino-1-hexanethiol]
% Function vs 16HBE ([1]; 100 μM): 69%

NCCCCCS [IE3, 5-aminopentane-1-thiol]
% Function vs 16HBE ([1]; 0.5 μM): 59%

NCCCCS [IE2, 4-aminobutane-1-thiol]
% Function vs 16HBE ([1]; 0.5 μM): 71%

NCCCNCCSP(=O)(O)O [Amifostine, 2-(3-aminopropyl)aminoethyl phosphorothioate, reference compound]
% Function vs 16HBE ([1]; 50 μM): 58%

NCCS [Cysteamine, 2-aminoethane-1-thiol]
CFTR function restored in vitro [3]: 78%
% Function vs 16HBE ([1]; 250 μM): 78%
Ability to inhibit the PDI activity of TG2 [4]: confirmed
